{"source": "patent US9057106B2", "about": "“Method of determination of diagnosis and prognosis in patients with B-cell chronic lymphocytic leukemia and oligonucleotides for use in this method” (MASARYKOVA UNIVERZITA, priority 2009, dated 2015)", "system": "CLL cells", "test": "Transwell migration assay of CLL cells in chemokine gradient", "format": "cell-based, human", "source_text": "2006 Nov. 1; 108(9):3143-51; Richardson S J, Matthews C, Catherwood M A, Alexander H D, Carey B S, Farrugia J, Gardiner A, Mould S, Oscier D, Copplestone J A, Prentice A G: ZAP-70 expression is associated with enhanced ability to respond to migratory and survival signals in B-cell chronic lymphocytic leukemia (CLL). Blood. 2006 May 1; 107(9):3584-92). […] CK1ε is the key component of the Wnt/PCP pathway and its quantity in the patients suffering from CLL is increased. As we show in FIG. 5B, the inhibition of CK1ε blocks the effects of Wnt5a on cell migration in the chemokine gradient. […] The extent of the migration of CLL cells in chemokine gradient after Wnt5a stimulation may be determined by the following procedure and used for the determination of the migration capacity of CLL cells that correlates closely with the infiltration of lymphatic organs and the agressiveness of the disease (Till K J, Lin K, Zuzel M., Cawley J C. The chemokine receptor CCR7 and a4 integrin are important for migration of chronic lymphocytic leukemia cells into lymph nodes. Blood. 2002 99: 2977-2984).\nCLL cells were isolated by the identical procedure as in Example 6. After isolation the cells were transferred to tissue culture and subjected to Transwell assay. 96 well plates were used for the experiments (Corning, HTS Transwell®-96 Permeable Support with 5.0 μm Pore Polycarbonate Membrane). These plates consist of a bottom part including the wells and a top part that includes the inserts, the bottom of which is formed by the membrane of a defined size of pores. Each sample was measured in triplicate. The wells in the bottom part of the plate always included 0.235 ml of the medium (RPMI 1640, 0.1% FBS, 1% Penicillin Streptomycin, 1% L-glutamine) and further the required concentration of the chemokine or solvent (0.1% BSA in PBS). […] After the cultivation the inserts were removed from the transwell plate, trypsin was added to each well (100 μl) and after 5 minutes of its activity the number of the cells that migrated through the membrane were counted in each well. […]", "note": "“Also recorded” adds a separate entry of the source."}
{"molecule": "NC(=O)c1ccc(-c2nc(-c3ccc4c(c3)OCCO4)c(-c3ccccn3)[nH]2)cc1", "note": "[D4476, reference compound]", "values": [{"measurement": "effect of CK1 inhibition on Wnt5a-induced migration of CLL cells in the chemokine gradient", "setting": "CK1 inhibitor D4476 100 uM, with Wnt5a and chemokine", "result": "blocks migration"}]}
{"molecule": "CXCL12: chemokine CXCL12", "values": [{"measurement": "migration of CLL cells", "setting": "substance itself (alone), 20 hours, recombinant Wnt5a 200 ng/ml", "result": "influences positively the migration of CLL cells"}]}
{"molecule": "Wnt5a: recombinant Wnt5a, secreted ligand of the Wnt/PCP pathway (protein, UniProt P41221 62-380, looked up) Protein Wnt-5a: IIGAQPLCSQLAGLSQGQKKLCHLYQDHMQYIGEGAKTGIKECQYQFRHRRWNCSTVDNTSVFGRVMQIGSRETAFTYAVSAAGVVNAMSRACREGELSTCGCSRAARPKDLPRDWLWGGCGDNIDYGYRFAKEFVDARERERIHAKGSYESARILMNLHNNEAGRRTVYNLADVACKCHGVSGSCSLKTCWLQLADFRKVGDALKEKYDSAAAMRLNSRGKLVQVNSRFNSPTTQDLVYIDPSPDYCVRNESTGSLGTQGRLCNKTSEGMDGCELMCCGRGYDQFKTVQTERCHCKFHWCCYVKCKKCTEIVDQFVCK", "values": [{"measurement": "migration of CLL cells in the presence of the chemokine CXCL12", "setting": "combination of CXCL12 and recombinant Wnt5a (200 ng/ml), 20 hours", "result": "positively affect the migration of CLL cells; also recorded: significantly increased the migration of CLL"}]}
